Test results from PubChem BioAssay (NCI).
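GI50 marks 50% less growth. TGI denotes the concentration required for complete inhibition of growth.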

Columns and labels:
Assay in all cases: DTP human tumour cell line panel, 384-well format
HS 578T breast = test system: HS 578T breast
COLO 205 colon = test system: COLO 205 colon
RPMI-8226 leukemia = test system: RPMI-8226 leukemia
DU-145 prostate = test system: DU-145 prostate
M14 melanoma = test system: M14 melanoma
HOP-62 NSCLC = test system: HOP-62 NSCLC
SK-MEL-2 melanoma = test system: SK-MEL-2 melanoma
NCI-H460 NSCLC = test system: NCI-H460 NSCLC
OVCAR-3 ovarian = test system: OVCAR-3 ovarian
MOLT-4 leukemia = test system: MOLT-4 leukemia
HOP-92 NSCLC = test system: HOP-92 NSCLC
CCRF-CEM leukemia = test system: CCRF-CEM leukemia
A549 NSCLC = test system: A549 NSCLC
OVCAR-5 ovarian = test system: OVCAR-5 ovarian
HT29 colon = test system: HT29 colon
TK-10 renal = test system: TK-10 renal
UACC-62 melanoma = test system: UACC-62 melanoma
OVCAR-8 ovarian = test system: OVCAR-8 ovarian
MALME-3M melanoma = test system: MALME-3M melanoma
RXF 393 renal = test system: RXF 393 renal
HCT-116 colon = test system: HCT-116 colon
HCC-2998 colon = test system: HCC-2998 colon
HCT-15 colon = test system: HCT-15 colon
SK-MEL-5 melanoma = test system: SK-MEL-5 melanoma
SNB-75 CNS = test system: SNB-75 CNS
KM12 colon = test system: KM12 colon
SK-MEL-28 melanoma = test system: SK-MEL-28 melanoma
K-562 leukemia = test system: K-562 leukemia
UO-31 renal = test system: UO-31 renal
ACHN renal = test system: ACHN renal
SF-295 CNS = test system: SF-295 CNS
IGROV1 ovarian = test system: IGROV1 ovarian
HL-60(TB) leukemia = test system: HL-60(TB) leukemia
MDA-MB-231 breast = test system: MDA-MB-231 breast
SF-539 CNS = test system: SF-539 CNS
A498 renal = test system: A498 renal
SK-OV-3 ovarian = test system: SK-OV-3 ovarian
CAKI-1 renal = test system: CAKI-1 renal
NCI-H522 lung = test system: NCI-H522 lung
T-47D breast = test system: T-47D breast
PC-3 prostate = test system: PC-3 prostate
MDA-MB-468 breast = test system: MDA-MB-468 breast
U251 glioblastoma = test system: U251 glioblastoma
NCI/ADR-RES ovarian = test system: NCI/ADR-RES ovarian
LOX IMVI melanoma = test system: LOX IMVI melanoma
MDA-MB-435 melanoma = test system: MDA-MB-435 melanoma
EKVX NSCLC = test system: EKVX NSCLC
SW-620 colon = test system: SW-620 colon
SF-268 CNS = test system: SF-268 CNS
UACC-257 melanoma = test system: UACC-257 melanoma
SNB-19 CNS = test system: SNB-19 CNS
BT-549 breast = test system: BT-549 breast
MCF7 breast = test system: MCF7 breast
NCI-H322M lung = test system: NCI-H322M lung
NCI-H23 lung = test system: NCI-H23 lung
OVCAR-4 ovarian = test system: OVCAR-4 ovarian
786-0 renal = test system: 786-0 renal
SN12C renal = test system: SN12C renal
NCI-H226 lung = test system: NCI-H226 lung

Cc1c(N)nc([C@H](CC(N)=O)NC[C@H](N)C(N)=O)nc1C(=O)N[C@H](C(=O)N[C@H](C)[C@@H](O)[C@H](C)C(=O)N[C@H](C(=O)NCCc1nc(-c2nc(C(=O)NCCC[S+](C)C)cs2)cs1)[C@@H](C)O)C(OC1OC(CO)C(O)C(O)C1OC1OC(CO)C(O)C(OC(N)=O)C1O)c1cnc[nH]1 (some centres not stated)
GI50 (HS 578T breast): 0.266 µM
TGI (HS 578T breast): 5.4 µM
GI50 (COLO 205 colon): 2.96 µM
TGI (COLO 205 colon): 7.57 µM
GI50 (RPMI-8226 leukemia): 7.9 µM
TGI (RPMI-8226 leukemia): > 100 µM
GI50 (DU-145 prostate): 1.71 µM
TGI (DU-145 prostate): > 20.5 µM
GI50 (M14 melanoma): 1.42 µM
TGI (M14 melanoma): 23.2 µM
GI50 (HOP-62 NSCLC): 0.169 µM
TGI (HOP-62 NSCLC): 1.19 µM
GI50 (SK-MEL-2 melanoma): 11.1 µM
TGI (SK-MEL-2 melanoma): 25.5 µM
GI50 (NCI-H460 NSCLC): 0.331 µM
TGI (NCI-H460 NSCLC): 14.6 µM
GI50 (OVCAR-3 ovarian): 3.67 µM
TGI (OVCAR-3 ovarian): 13.7 µM
GI50 (MOLT-4 leukemia): 0.439 µM
TGI (MOLT-4 leukemia): 1.53 µM
GI50 (HOP-92 NSCLC): 0.648 µM
TGI (HOP-92 NSCLC): 23.6 µM
GI50 (CCRF-CEM leukemia): 2.08 µM
TGI (CCRF-CEM leukemia): 6.72 µM
GI50 (A549 NSCLC): 1.65 µM
TGI (A549 NSCLC): > 92.1 µM
GI50 (OVCAR-5 ovarian): 6.43 µM
TGI (OVCAR-5 ovarian): > 76 µM
GI50 (HT29 colon): 16.9 µM
TGI (HT29 colon): > 100 µM
GI50 (TK-10 renal): 8.01 µM
TGI (TK-10 renal): > 42.1 µM
GI50 (UACC-62 melanoma): 1.26 µM
TGI (UACC-62 melanoma): 20 µM
GI50 (OVCAR-8 ovarian): 0.41 µM
TGI (OVCAR-8 ovarian): 21 µM
GI50 (MALME-3M melanoma): 18.2 µM
TGI (MALME-3M melanoma): > 100 µM
GI50 (RXF 393 renal): 2.2 µM
TGI (RXF 393 renal): 10.2 µM
GI50 (HCT-116 colon): 0.071 µM
TGI (HCT-116 colon): 19 µM
GI50 (HCC-2998 colon): 6.35 µM
TGI (HCC-2998 colon): 53.3 µM
GI50 (HCT-15 colon): 0.4 µM
TGI (HCT-15 colon): 16.9 µM
GI50 (SK-MEL-5 melanoma): 0.211 µM
TGI (SK-MEL-5 melanoma): 1.17 µM
GI50 (SNB-75 CNS): 1.32 µM
TGI (SNB-75 CNS): 6.43 µM
GI50 (KM12 colon): 1.78 µM
TGI (KM12 colon): 27.8 µM
GI50 (SK-MEL-28 melanoma): 43.7 µM
TGI (SK-MEL-28 melanoma): > 100 µM
GI50 (K-562 leukemia): 8.46 µM
TGI (K-562 leukemia): > 79 µM
GI50 (UO-31 renal): 2.08 µM
TGI (UO-31 renal): > 35.3 µM
GI50 (ACHN renal): 0.164 µM
TGI (ACHN renal): 0.929 µM
GI50 (SF-295 CNS): 0.128 µM
TGI (SF-295 CNS): 0.824 µM
GI50 (IGROV1 ovarian): 3.19 µM
TGI (IGROV1 ovarian): 43.6 µM
GI50 (HL-60(TB) leukemia): 2.66 µM
TGI (HL-60(TB) leukemia): 7.29 µM
GI50 (MDA-MB-231 breast): 31.2 µM
TGI (MDA-MB-231 breast): > 100 µM
GI50 (SF-539 CNS): 0.234 µM
TGI (SF-539 CNS): 4.56 µM
GI50 (A498 renal): 1.51 µM
TGI (A498 renal): 25.9 µM
GI50 (SK-OV-3 ovarian): 4.84 µM
TGI (SK-OV-3 ovarian): > 64.7 µM
GI50 (CAKI-1 renal): 1.43 µM
TGI (CAKI-1 renal): > 44.8 µM
GI50 (NCI-H522 lung): 2.21 µM
TGI (NCI-H522 lung): 16.4 µM
GI50 (T-47D breast): 9.71 µM
TGI (T-47D breast): > 82.5 µM
GI50 (PC-3 prostate): 46.5 µM
TGI (PC-3 prostate): > 100 µM
GI50 (MDA-MB-468 breast): 0.97 µM
TGI (MDA-MB-468 breast): 4.28 µM
GI50 (U251 glioblastoma): 0.522 µM
TGI (U251 glioblastoma): 11.2 µM
GI50 (NCI/ADR-RES ovarian): 0.273 µM
TGI (NCI/ADR-RES ovarian): 5.9 µM
GI50 (LOX IMVI melanoma): 0.57 µM
TGI (LOX IMVI melanoma): 12.3 µM
GI50 (MDA-MB-435 melanoma): 71.3 µM
TGI (MDA-MB-435 melanoma): > 100 µM
GI50 (EKVX NSCLC): > 48.2 µM
TGI (EKVX NSCLC): > 100 µM
GI50 (SW-620 colon): 4.95 µM
TGI (SW-620 colon): > 100 µM
GI50 (SF-268 CNS): 0.6 µM
TGI (SF-268 CNS): 8.37 µM
GI50 (UACC-257 melanoma): > 68 µM
TGI (UACC-257 melanoma): > 100 µM
GI50 (SNB-19 CNS): 6.76 µM
TGI (SNB-19 CNS): > 52 µM
GI50 (BT-549 breast): 1.06 µM
TGI (BT-549 breast): 22.4 µM
GI50 (MCF7 breast): 10 µM
TGI (MCF7 breast): > 100 µM
GI50 (NCI-H322M lung): 26.1 µM
TGI (NCI-H322M lung): > 100 µM
GI50 (NCI-H23 lung): 1.21 µM
TGI (NCI-H23 lung): 11.9 µM
GI50 (OVCAR-4 ovarian): 13 µM
TGI (OVCAR-4 ovarian): > 54.7 µM
GI50 ([…]-0 renal): 0.945 µM
GI50 (SN12C renal): 1.62 µM
TGI (SN12C renal): 34.9 µM
GI50 (NCI-H226 lung): 0.778 µM
TGI (NCI-H226 lung): 9.52 µM
